Test results taken from US11155546B2, “4,6,7-trisubstituted 1,2-dihydropyrrolo[3,4-c]pyridin/pyrimidin-3-one derivatives and uses thereof” (SHANGHAI HAIYAN PHARMACEUTICAL TECHNOLOGY CO., LTD., priority 2017, dated 2021).

Tests used:
[1] = target: βBTK Y223 (Homo sapiens (Human), UniProt Q06187); experiment: Intracellular βBTK Y223 phosphorylation HTRF in Ramos cells; format: cell-based
Description: The compound was predissolved in 100% DMSO. […] 20 μl of lysate (4× lysate: blocked mother liquor is 25:1) was added to each well and incubated for 30 minutes at 25° C. on a shaker. It was shaken on an oscillator at 800 rpm for 1 minute. […] The half-inhibitory concentration IC50 was calculated by fitting with XLFIT 5.0 software (IDBS, UK).

[2] = target: wild-type EGFR kinase (Homo sapiens (Human), UniProt P00533); experiment: Wild type EGFR kinase inhibition test (z-lyte); format: biochemical; conditions: 10 μM ATP; read-out: EGFR WT IC50
Sequence of wild-type EGFR kinase (P00533 25-1210): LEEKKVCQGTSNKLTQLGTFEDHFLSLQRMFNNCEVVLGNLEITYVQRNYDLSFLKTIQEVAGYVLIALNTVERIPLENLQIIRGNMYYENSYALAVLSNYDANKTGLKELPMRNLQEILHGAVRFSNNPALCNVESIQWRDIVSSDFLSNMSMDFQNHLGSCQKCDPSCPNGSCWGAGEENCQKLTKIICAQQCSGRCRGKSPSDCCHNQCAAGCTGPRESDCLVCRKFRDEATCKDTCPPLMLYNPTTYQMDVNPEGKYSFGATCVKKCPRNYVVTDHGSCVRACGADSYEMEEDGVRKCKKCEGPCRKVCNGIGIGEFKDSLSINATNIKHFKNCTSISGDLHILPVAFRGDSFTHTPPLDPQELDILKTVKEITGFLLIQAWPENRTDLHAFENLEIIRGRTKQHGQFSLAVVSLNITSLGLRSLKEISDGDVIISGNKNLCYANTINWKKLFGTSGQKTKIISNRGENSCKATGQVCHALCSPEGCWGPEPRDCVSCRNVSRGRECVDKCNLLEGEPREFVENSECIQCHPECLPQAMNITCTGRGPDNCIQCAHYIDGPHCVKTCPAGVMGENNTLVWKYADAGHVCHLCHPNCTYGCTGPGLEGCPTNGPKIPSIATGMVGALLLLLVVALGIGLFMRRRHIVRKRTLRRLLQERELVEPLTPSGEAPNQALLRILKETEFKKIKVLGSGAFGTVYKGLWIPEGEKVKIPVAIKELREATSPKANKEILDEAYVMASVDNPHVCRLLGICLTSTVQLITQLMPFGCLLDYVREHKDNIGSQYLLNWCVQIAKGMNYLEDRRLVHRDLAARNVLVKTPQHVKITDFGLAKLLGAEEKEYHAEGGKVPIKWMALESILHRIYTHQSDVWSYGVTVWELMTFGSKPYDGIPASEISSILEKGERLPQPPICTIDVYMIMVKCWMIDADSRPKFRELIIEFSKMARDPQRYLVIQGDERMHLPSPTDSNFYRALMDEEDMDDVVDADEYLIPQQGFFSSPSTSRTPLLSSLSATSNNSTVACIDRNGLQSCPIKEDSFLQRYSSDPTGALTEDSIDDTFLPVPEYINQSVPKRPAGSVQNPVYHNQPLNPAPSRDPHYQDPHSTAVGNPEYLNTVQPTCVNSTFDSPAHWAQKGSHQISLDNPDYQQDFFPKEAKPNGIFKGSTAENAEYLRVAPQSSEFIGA
Text: All the following reagents used in z-lyte test are commercially available from Invitrogen.
The calculation method for the inhibition ratio (referring to the specification of Invitrogen, PV3363) was as follows: ER=Coumarin Emission(450 nm)/Fluorescein Emission(520 nm) 1. Phosphorylation ratio=(1−((ER×C3520nm−C3450nm)/((C1450nm−C3450nm)+ER×(C3520nm−C1520nm))))×100% 2. Inhibition ratio (IR)=(1−phosphorylation ratio of the test compound)/(phosphorylation ratio of C2))×100% 3.
The half-inhibitory concentration IC50 was calculated by fitting with XLFIT 5.0 software (IDBS, UK).

[3] = target: BTK WT (Homo sapiens (Human), UniProt Q06187); experiment: Lantha screening kinase reaction, inhibition of BTK WT; format: biochemical
Sequence of BTK WT (Q06187 whole entry): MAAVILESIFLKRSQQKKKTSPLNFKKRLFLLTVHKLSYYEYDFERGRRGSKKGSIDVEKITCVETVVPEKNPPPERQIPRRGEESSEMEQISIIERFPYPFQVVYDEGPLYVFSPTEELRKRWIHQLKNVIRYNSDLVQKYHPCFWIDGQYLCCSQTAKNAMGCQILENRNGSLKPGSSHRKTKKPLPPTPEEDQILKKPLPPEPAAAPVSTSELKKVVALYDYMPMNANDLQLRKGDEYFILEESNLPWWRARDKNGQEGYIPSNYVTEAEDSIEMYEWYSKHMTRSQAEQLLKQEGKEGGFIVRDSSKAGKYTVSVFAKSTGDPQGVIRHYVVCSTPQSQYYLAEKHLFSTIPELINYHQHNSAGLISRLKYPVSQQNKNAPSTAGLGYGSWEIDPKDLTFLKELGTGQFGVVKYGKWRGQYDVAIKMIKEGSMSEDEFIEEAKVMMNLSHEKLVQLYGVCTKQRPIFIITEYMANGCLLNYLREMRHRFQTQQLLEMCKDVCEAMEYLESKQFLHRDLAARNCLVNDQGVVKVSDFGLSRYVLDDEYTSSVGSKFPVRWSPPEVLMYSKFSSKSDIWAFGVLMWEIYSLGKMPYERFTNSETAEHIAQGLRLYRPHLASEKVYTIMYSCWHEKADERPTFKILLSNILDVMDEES
Description: The compound was predissolved in 100% DMSO. 10 mM drug stock solution was obtained by dissolution at room temperature and then serially diluted with 8 vol % DMSO solution to a final concentration of 10-0.005 μM. […] Among the wells, the kinase in the blank well was replaced with a reaction buffer and the kinase well (Enzyme) was not added with any drug. After shaking at 25° C. for 60 minutes in the dark, 10 μl of Detection Solution (mixture of Invitrogen PV3528 and EDTA, which was diluted with TR-FRET dilution buffer, the working concentration of EDTA was 5 mM, the working concentration of Lanthascreening Tb PY20 antibody was 0.2 nM) was added and shaken at room temperature for 30 minutes. The plates were read on a VictorX5 fluorescent plate reader (PerkinElmer) and the light absorption at an excitation wavelength of 340 nm and emission wavelengths of 500 nm and 520 nm was measured.
The calculation method for the inhibition ratio (referring to the specification of Invitrogen, PV3363) was as follows: Emission ratio (ER):Coumarin Emission (520 nm)/Fluorescein Emission (500 nm) 1. The inhibition ratio (IR):(ERkinase−ERtest compound)/(ERkinase−ERblank)×100%. 2.
The half-inhibitory concentration IC50 was calculated by fitting with XLFIT5.0 software (IDBS, UK).

[4] = in vivo; conditions: mouse, in vivo, po, 30 mg/kg
Description: Test Animals: ICR mice, weight 28-30 g, male, totally 12, purchased from SLAC Laboratory Animal Co., Ltd. Mice were fasting one night before administration and freely fed 4 hours after administration.
Administration and Blood collection: 6 mice were administered intragastrically (PO) in a administered dosage of 30 mg/kg and a administered volume of 10 mL/kg. One administration route was subjected with 6 mice, blood samples of three mice were collected at one time point, and blood samples of another three mice were collected at alternate time point alternately. Blood was collected at 8 time points of 0.083, 0.25, 0.5, 1, 2, 4, 8, 24 h after administration respectively.
Animals were manually controlled at the time of collection and approximately 80 μL of blood was collected from the mice fundus venous plexus into a tube containing K2EDTA. The collected blood sample was put on wet ice, centrifuged within 15 min (8000 rpm, 4 min at 4° C.), and then the plasma sample was taken and stored at minus 20° C. till analysis. The compounds were prepared on the day of the experiment.
Solvent excipient information: DMSO (brand: Sigma, batch number: SHBD2446V); 2-hydroxypropyl-3-cyclodextrin (brand: Sigma, batch number: BCBN8227V), acetic acid (brand: Sinopharm Group, batch number: 20150616), sodium acetate (Brand: GENERAL-REAGENT, batch number: P1246037).
Preparation of a 3 mg/mL PO dosing solution: the solvent was a solution of 5% DMSO and 95% PH4.5 (sodium acetate-acetate) in 20% of 2-hydroxypropyl-β-cyclodextrin.
Analytical method: Plasma samples were analyzed by liquid chromatography-tandem mass spectrometry (Instrument type: Triple Quad™ 4000).
Preparation of the standard curve: preparing a standard curve of the test compound 1n the plasma matrix of ICR mice with a linear range of 1.00-3000 ng/mL, and preparing control samples at low, medium and high concentrations of 3 ng/mL, 500 ng/mL, and 2400 ng/mL respectively.
Treatment of biological samples: the frozen plasma samples were thawed on ice, and after the samples were thawed, they were vortexed on a vortex for 5 min. 20 μL of plasma sample was added to a 96-well plate, and 200 μL of acetonitrile (brand: Merck, Lot: 1854029643) containing an internal standard dexamethasone (Brand: NIFDC, Lot: 1N2V-DPGY, 2000 ng/mL) was added to precipitate protein, which were vortexed for 5 min, and then centrifuged at 3700 rpm and 4° C. for 15 min. The supernatant was extracted and twice centrifuged under the same conditions, and finally 2 μL of the supernatant solution was analyzed by LC-MS/MS.

Sequence of βBTK Y223 (Q06187 whole entry): as above

Structure (SMILES): C=CC(=O)N(C)C1CCN(c2nc(Nc3cnn(C)c3)c3c(c2F)CNC3=O)C1 (stereo not shown) [Compound G-88, N-(1-(7-fluoro-4-(1-methyl-1H-pyrazol-4-ylamino)-3-oxo-2,3-dihydro-1H-pyrrolo[3,4-c]pyridin-6-yl)pyrrolidine-3-yl)-N-methyl acrylamide]
- IC50 [1]: 56 nM
- IC50 [2]: 1050 nM
- IC50 [3]: 17 nM

Structure (SMILES): C=CC(=O)N1CCCC(N(C)c2nc(-c3cnn(C(F)F)c3)c3c(c2F)CNC3=O)C1 (stereo not shown) [Compound G-63, 6-((1-acryloylpiperidin-3-yl)(methyl)amino)-4-(1-(difluoromethyl)-1H-pyrazole-4-yl)-7-fluoro-1H-pyrrolo[3,4-c]pyridine-3(2H)-one]
- IC50 [1]: 50 nM
- IC50 [2]: > 10000 nM
- IC50 [3]: 25 nM

Structure (SMILES): C=CC(=O)N1CCCC(Nc2nc(Nc3cnn(C)n3)c3c(c2F)CNC3=O)C1 (stereo not shown) [Compound G-35]
- IC50 [1]: 35 nM

Structure (SMILES): C=CC(=O)N1CCCC(Nc2nc(Nc3ccc(N4CCOCC4C)cc3)c3c(c2F)CNC3=O)C1 (stereo not shown) [Compound G-32]
- Area under curve AUC [4]: 1463 ng·h/mL
- Maximum blood concentration Cmax [4]: 837.7 ng/mL
- Oral relative bioavailability F (%) [4]: 14.7%
- Tmax [4]: 30 min
- half-time T1/2 [4]: 72.6 min
- IC50 [2]: 5340 nM
- IC50 [3]: 5 nM

Structure (SMILES): C=CC(=O)N1CCCC(Nc2nc(Nc3cnn(C)c3)c3c(c2F)CNC3=O)C1 (stereo not shown) [Compound G-25]
- IC50 [1]: 2 nM
- IC50 [2]: 1090 nM
- IC50 [3]: 2 nM

Structure (SMILES): C=CC(=O)N1CC(Nc2nc(Nc3ccc(OCCOC)cc3)c3c(c2F)CNC3=O)C1 [Compound G-5]
- IC50 [1]: 59 nM
- IC50 [2]: 1910 nM
- IC50 [3]: 48 nM

Structure (SMILES): C=CC(=O)NC1CN(c2nc(Nc3ccc(N4CCOCC4)cc3)c3c(c2F)CNC3=O)CC1F (stereo not shown) [Compound G-86, N-(4-fluoro-1-(7-fluoro-4-(4-morpholin)-3-oxo-2,3-dihydro-1H-pyrrolo[3,4-c]pyridin-6-yl)pyrrolidinepyridine-3-yl)acrylamide]
- IC50 [1]: 5 nM
- IC50 [2]: 1180 nM
- IC50 [3]: 1 nM

Structure (SMILES): C=CC(=O)N1CCC(Nc2nc(Nc3ccc(OCCOC)cc3)c3c(c2F)CNC3=O)CC1 [Compound G-6]
- IC50 [1]: 29 nM

Structure (SMILES): C=CC(=O)N1CCCC(Nc2nc(Nc3ccc(N4CCOCC4C)c(F)c3)c3c(c2F)CNC3=O)C1 (stereo not shown) [Compound G-42]
- Area under curve AUC [4]: 1266 ng·h/mL
- Maximum blood concentration Cmax [4]: 945.0 ng/mL
- Oral relative bioavailability F (%) [4]: 12.3%
- Tmax [4]: 15 min
- half-time T1/2 [4]: 104 min
- IC50 [2]: 5190 nM
- IC50 [3]: 5 nM

Structure (SMILES): C=CC(=O)N1CCCC(Nc2nc(-c3cnn(C(F)F)c3)c3c(c2F)CNC3=O)C1 (stereo not shown) [Compound G-48]
- IC50 [1]: 62 nM

Structure (SMILES): C=CC(=O)N1CCCC(Nc2nc(Nc3ccc(N4CCOCC4)c(F)c3)c3c(c2F)CNC3=O)C1 (stereo not shown) [Compound G-33]
- Area under curve AUC [4]: 1193 ng·h/mL
- Maximum blood concentration Cmax [4]: 964.0 ng/mL
- Oral relative bioavailability F (%) [4]: 15.6%
- Tmax [4]: 4.8 min
- half-time T1/2 [4]: 71.4 min
- IC50 [2]: 7170 nM
- IC50 [3]: 5 nM

Structure (SMILES): C=CC(=O)N1CCCCC(Nc2nc(Nc3ccc(OCCOC)cc3)c3c(c2F)CNC3=O)C1 (stereo not shown) [Compound G-3, 6-(1-acryloylazacycloheptane-3-ylamino)-7-fluoro-4-(4-(2-methoxyethoxy)phenylamino)-1H-pyrrolo[3,4-c]pyridine-3 (2H)-one]
- IC50 [1]: 11 nM
- IC50 [2]: 2290 nM
- IC50 [3]: 2 nM

Structure (SMILES): C=CC(=O)N1CCCCC(Nc2nc(Nc3ccc(N4CCOCC4)cc3)c3c(c2F)CNC3=O)C1 (stereo not shown) [Compound G-27]
- IC50 [1]: 11 nM
- IC50 [2]: 3690 nM
- IC50 [3]: 5 nM

Structure (SMILES): C=CC(=O)N1CC(Nc2nc(Nc3ccc(N4CCOCC4)cc3)c3c(c2F)CNC3=O)CCC1C (stereo not shown) [Compound G-28]
- IC50 [1]: 10 nM
- IC50 [2]: 2300 nM
- IC50 [3]: 5 nM

Structure (SMILES): C=CC(=O)N1CCCC(Nc2nc(Nc3ccc(N4CCOCC4=O)cc3)c3c(c2F)CNC3=O)C1 (stereo not shown) [Compound G-17]
- IC50 [1]: 16 nM
- IC50 [2]: 1500 nM
- IC50 [3]: 2 nM

Structure (SMILES): C=CC(=O)NC1CN(c2nc(Nc3cnn(C)c3)c3c(c2F)CNC3=O)C1 [Compound G-85, N-(1-(7-fluoro-4-(1-methyl-1H-pyrazol-4-ylamino)-3-oxo-2,3-dihydro-1H-pyrrolo[3,4-c]pyridin-6-yl)azetidin-3-yl)acrylamide]
- IC50 [1]: 43 nM
- IC50 [2]: 1120 nM
- IC50 [3]: 32 nM

Structure (SMILES): C=CC(=O)N1CCCC(Nc2nc(Nc3cnn(C4CCOCC4)c3)c3c(c2F)CNC3=O)C1 (stereo not shown) [Compound G-10]
- IC50 [1]: 7 nM
- IC50 [2]: 1740 nM
- IC50 [3]: 3 nM

Structure (SMILES): C=CC(=O)N1CCCC(Nc2nc(Nc3ccc(OCCOC)cc3)c3c(c2F)CNC3=O)CC1 (stereo not shown) [Compound G-4]
- IC50 [1]: 23 nM
- IC50 [2]: 2370 nM
- IC50 [3]: 7 nM

Structure (SMILES): C=CC(=O)N1CCCC(Nc2nc(Nc3cnn(C4CN(C)CC4F)c3)c3c(c2F)CNC3=O)C1 (stereo not shown) [Compound G-15]
- IC50 [1]: 5 nM
- IC50 [2]: 1220 nM
- IC50 [3]: 3 nM

Structure (SMILES): C=CC(=O)N1CCC[C@@H](Nc2nc(-c3cnn(C)c3)c3c(c2F)CNC3=O)C1 [Compound G-111]
- AUC ([4]; male, ICR): 2180 ng·h/mL
- Cmax ([4]; male, ICR): 3490 ng/mL
- Tmax ([4]; male, ICR): 4.8 min
- bioavailability ([4]; male, ICR): 79.7%
- half-life ([4]; male, ICR): 356 min
- IC50 [2]: > 10000 nM
- IC50 [3]: 69 nM

Structure (SMILES): C=CC(=O)N1CCCC(Nc2nc(Nc3ccc(N4CCN(C5COC5)CC4C)cc3)c3c(c2F)CNC3=O)C1 (stereo not shown) [Compound G-34]
- Area under curve AUC [4]: 1869 ng·h/mL
- Maximum blood concentration Cmax [4]: 1990.0 ng/mL
- Oral relative bioavailability F (%) [4]: 28.6%
- Tmax [4]: 4.8 min
- half-time T1/2 [4]: 86.4 min
- IC50 [2]: 3170 nM
- IC50 [3]: 5 nM

Structure (SMILES): C=CC(=O)N1CCC2CN(c3nc(Nc4cnn(C)c4)c4c(c3F)CNC4=O)CC21 (stereo not shown) [Compound G-87]
- IC50 [1]: 4 nM
- IC50 [3]: 1 nM

Structure (SMILES): C=CC(=O)N1CCC[C@H](Nc2nc(Nc3ccc(N4CCOCC4)cc3)c3c(c2F)CNC3=O)C1 [Compound G-114]
- AUC ([4]; male, ICR): 1070 ng·h/mL
- Cmax ([4]; male, ICR): 1240 ng/mL
- Tmax ([4]; male, ICR): 4.8 min
- bioavailability ([4]; male, ICR): 13.7%
- half-life ([4]; male, ICR): 148 min
- IC50 [2]: 4130 nM
- IC50 [3]: 34 nM

Structure (SMILES): C=CC(=O)N1CC(Nc2nc(Nc3ccc(N4CCOCC4)c(F)c3)c3c(c2F)CNC3=O)CCC1C (stereo not shown) [Compound G-41]
- IC50 [1]: 3 nM
- IC50 [3]: 2 nM

Structure (SMILES): C=CC(=O)N1CCCC(Nc2nc(Nc3cc(C)ns3)c3c(c2F)CNC3=O)C1 (stereo not shown) [Compound G-23]
- Area under curve AUC [4]: 645 ng·h/mL
- Maximum blood concentration Cmax [4]: 878.7 ng/mL
- Oral relative bioavailability F (%) [4]: 14%
- Tmax [4]: 4.8 min
- half-time T1/2 [4]: 195 min
- IC50 [2]: 1800 nM
- IC50 [3]: 5 nM

Structure (SMILES): C=CC(=O)N1CCCC(Nc2nc(-c3cnn(C4CC4)c3)c3c(c2F)CNC3=O)C1 (stereo not shown) [Compound G-45]
- IC50 [1]: 109 nM
- IC50 [3]: 69 nM
